Key:
[1] = system: Pseudomonas aeruginosa; assay: Antimicrobial activity against OprD overproducing Pseudomonas aeruginosa PAO1 expressing mexA and oprD by agar dilution method in presence of beta-lactamase inhibitor Tazobactam; format: functional
[2] = system: Pseudomonas aeruginosa; assay: Antimicrobial activity against Pseudomonas aeruginosa PS2 with PFGE phenotype 10B obtained from urine of ICU patient by agar dilution method in presence of beta-lactamase inhibitor tazobactam; format: functional
[3] = system: Pseudomonas aeruginosa; assay: Antimicrobial activity against Pseudomonas aeruginosa PS3 with PFGE phenotype 12 obtained from sputum of ICU patient by agar dilution method in presence of beta-lactamase inhibitor tazobactam; format: functional
[4] = system: Pseudomonas aeruginosa; assay: Antimicrobial activity against Pseudomonas aeruginosa PS4 with PFGE phasotype 9B expressing beta-lactamase IMP-18 obtained from sputum of patient by agar dilution method in presence of beta-lactamase inhibitor Tazobactam; format: functional
[5] = system: Pseudomonas aeruginosa; assay: Antimicrobial activity against Pseudomonas aeruginosa PS5 with PFGE phenotype 7A expressing beta-lactamase KPC-2 obtained from sputum of ICU patient by agar dilution method in presence of beta-lactamase inhibitor tazobactam; format: functional
[6] = system: Pseudomonas aeruginosa; assay: Antimicrobial activity against Pseudomonas aeruginosa PS6A with PFGE phenotype 11A obtained from sputum of ICU patient by agar dilution method in presence of beta-lactamase inhibitor tazobactam; format: functional
[7] = system: Pseudomonas aeruginosa; assay: Antimicrobial activity against Pseudomonas aeruginosa PS7A with PFGE phenotype 11D obtained from urine of ICU patient by agar dilution method in presence of beta-lactamase inhibitor tazobactam; format: functional
[8] = system: Pseudomonas aeruginosa; assay: Antimicrobial activity against Pseudomonas aeruginosa PS9 with PFGE phenotype 3B obtained from sputum of patient by agar dilution method in presence of beta-lactamase inhibitor tazobactam; format: functional
[9] = system: Pseudomonas aeruginosa; assay: Antimicrobial activity against Pseudomonas aeruginosa PS10 with PFGE phenotype 1A expressing beta-lactamase KPC-2 obtained from blood of patient by agar dilution method in presence of beta-lactamase inhibitor tazobactam; format: functional
[10] = system: Pseudomonas aeruginosa; assay: Antimicrobial activity against Pseudomonas aeruginosa PS11A with PFGE phasotype 7A obtained from sputum of ICU patient by agar dilution method in presence of beta-lactamase inhibitor Tazobactam; format: functional
[11] = system: Pseudomonas aeruginosa; assay: Antimicrobial activity against Pseudomonas aeruginosa PS12 with PFGE phasotype 7B obtained from sputum of patient by agar dilution method in presence of beta-lactamase inhibitor Tazobactam; format: functional
[12] = system: Pseudomonas aeruginosa; assay: Antimicrobial activity against Pseudomonas aeruginosa PS13 with PFGE phenotype 11E obtained from sputum of ICU patient by agar dilution method in presence of beta-lactamase inhibitor tazobactam; format: functional
[13] = system: Pseudomonas aeruginosa; assay: Antimicrobial activity against Pseudomonas aeruginosa PS14 with PFGE phenotype 10C obtained from sputum of ICU patient by agar dilution method in presence of beta-lactamase inhibitor tazobactam; format: functional
[14] = system: Pseudomonas aeruginosa; assay: Antimicrobial activity against Pseudomonas aeruginosa PS15A with PFGE phasotype 10A obtained from blood of patient by agar dilution method in presence of beta-lactamase inhibitor Tazobactam; format: functional
[15] = system: Pseudomonas aeruginosa; assay: Antimicrobial activity against Pseudomonas aeruginosa PS17B with PFGE phenotype 11D expressing beta-lactamase KPC-2 obtained from blood of ICU patient by agar dilution method in presence of beta-lactamase inhibitor tazobactam; format: functional
[16] = system: Pseudomonas aeruginosa; assay: Antimicrobial activity against Pseudomonas aeruginosa PS18A with PFGE phenotype 11D obtained from CSF of ICU patient by agar dilution method in presence of beta-lactamase inhibitor tazobactam; format: functional
[17] = system: Pseudomonas aeruginosa; assay: Antimicrobial activity against Pseudomonas aeruginosa PS19A with PFGE phenotype 11C obtained from urine of patient by agar dilution method in presence of beta-lactamase inhibitor tazobactam; format: functional
[18] = system: Pseudomonas aeruginosa; assay: Antimicrobial activity against Pseudomonas aeruginosa PS20A with PFGE phenotype 11D obtained from skin of patient by agar dilution method in presence of beta-lactamase inhibitor tazobactam; format: functional
[19] = system: Pseudomonas aeruginosa; assay: Antimicrobial activity against Pseudomonas aeruginosa PS21 with PFGE phenotype 11F obtained from skin of patient by agar dilution method in presence of beta-lactamase inhibitor tazobactam; format: functional
[20] = system: Pseudomonas aeruginosa; assay: Antimicrobial activity against Pseudomonas aeruginosa PS22 with PFGE phenotype 3A obtained from urine of patient by agar dilution method in presence of beta-lactamase inhibitor tazobactam; format: functional
[21] = system: Pseudomonas aeruginosa; assay: Antimicrobial activity against Pseudomonas aeruginosa PS23 with PFGE phasotype 4A expressing beta-lactamase KPC-2 obtained from blood of patient by agar dilution method in presence of beta-lactamase inhibitor Tazobactam; format: functional
[22] = system: Pseudomonas aeruginosa; assay: Antimicrobial activity against Pseudomonas aeruginosa PS25 with PFGE phenotype 1A obtained from sputum of patient by agar dilution method in presence of beta-lactamase inhibitor tazobactam; format: functional
[23] = system: Pseudomonas aeruginosa; assay: Antimicrobial activity against Pseudomonas aeruginosa PS26 with PFGE phenotype 3A expressing beta-lactamase OXA-2 obtained from sputum of ICU patient by agar dilution method in presence of beta-lactamase inhibitor tazobactam; format: functional
[24] = system: Pseudomonas aeruginosa; assay: Antimicrobial activity against Pseudomonas aeruginosa PS28 with PFGE phenotype 6 expressing beta-lactamase KPC-5 obtained from skin of patient by agar dilution method in presence of beta-lactamase inhibitor tazobactam; format: functional
[25] = system: Pseudomonas aeruginosa; assay: Antimicrobial activity against Pseudomonas aeruginosa PS29 with PFGE phenotype 11D obtained from sputum of patient by agar dilution method in presence of beta-lactamase inhibitor tazobactam; format: functional
[26] = system: Pseudomonas aeruginosa; assay: Antimicrobial activity against Pseudomonas aeruginosa PS30 with PFGE phenotype 11D obtained from sputum of patient by agar dilution method in presence of beta-lactamase inhibitor tazobactam; format: functional
[27] = system: Pseudomonas aeruginosa; assay: Antimicrobial activity against Pseudomonas aeruginosa PS31 with PFGE phenotype 11B obtained from skin of patient by agar dilution method in presence of beta-lactamase inhibitor tazobactam; format: functional
[28] = system: Pseudomonas aeruginosa; assay: Antimicrobial activity against Pseudomonas aeruginosa PS33 with PFGE phasotype 9A obtained from blood of patient by agar dilution method in presence of beta-lactamase inhibitor Tazobactam; format: functional
[29] = system: Pseudomonas aeruginosa; assay: Antimicrobial activity against Pseudomonas aeruginosa PS34 with PFGE phenotype 4A obtained from blood of ICU patient by agar dilution method in presence of beta-lactamase inhibitor tazobactam; format: functional
[30] = system: Pseudomonas aeruginosa; assay: Antimicrobial activity against Pseudomonas aeruginosa PS35 with PFGE phenotype 11A obtained from urine of patient by agar dilution method in presence of beta-lactamase inhibitor tazobactam; format: functional
[31] = system: Pseudomonas aeruginosa; assay: Antimicrobial activity against Pseudomonas aeruginosa PS36 with PFGE phenotype 11B obtained from urine of patient by agar dilution method in presence of beta-lactamase inhibitor tazobactam; format: functional
[32] = system: Pseudomonas aeruginosa; assay: Antimicrobial activity against Pseudomonas aeruginosa PS37 with PFGE phasotype 11D obtained from sputum of patient by agar dilution method in presence of beta-lactamase inhibitor Tazobactam; format: functional
[33] = system: Pseudomonas aeruginosa; assay: Antimicrobial activity against Pseudomonas aeruginosa PS39 with PFGE phenotype 8 expressing beta-lactamase IMP-18 obtained from urine of patient by agar dilution method in presence of beta-lactamase inhibitor tazobactam; format: functional
[34] = system: Pseudomonas aeruginosa; assay: Antimicrobial activity against Pseudomonas aeruginosa PS40 with PFGE phenotype 5 expressing beta-lactamase KPC-2, OXA-2 obtained from urine of patient by agar dilution method in presence of beta-lactamase inhibitor tazobactam; format: functional
[35] = system: Pseudomonas aeruginosa; assay: Antimicrobial activity against Pseudomonas aeruginosa PS41 with PFGE phenotype 11D obtained from urine of patient by agar dilution method in presence of beta-lactamase inhibitor tazobactam; format: functional
[36] = system: Pseudomonas aeruginosa; assay: Antimicrobial activity against Pseudomonas aeruginosa PS43 with PFGE phasotype 2 expressing beta-lactamase KPC-2, OXA-2 obtained from skin of ICU patient by agar dilution method in presence of beta-lactamase inhibitor Tazobactam; format: functional
[37] = system: Pseudomonas aeruginosa; assay: Antimicrobial activity against Pseudomonas aeruginosa PS44 with PFGE phenotype 13 expressing beta-lactamase IMP-18 obtained from blood of patient by agar dilution method in presence of beta-lactamase inhibitor tazobactam; format: functional
[38] = system: Pseudomonas aeruginosa; assay: Antimicrobial activity against Pseudomonas aeruginosa PS1 with PFGE phenotype 9C negative for blaIMP, blaVIM and blaKPC obtained from sputum of patient by agar dilution method in presence of beta-lactamase inhibitor tazobactam

## CCN1CCN(C(=O)N[C@@H](C(=O)N[C@@H]2C(=O)N3[C@@H]2SC(C)(C)[C@@H]3C(=O)O)c2ccccc2)C(=O)C1=O [PIPERACILLIN]
[1]
  MIC: 4 µg/mL
[2]
  MIC: 4 µg/mL
[3]
  MIC: 8 µg/mL
[4]
  MIC: 64 µg/mL
[5]
  MIC: > 256 µg/mL
[6]
  MIC: > 256 µg/mL
[7]
  MIC: > 256 µg/mL
[8]
  MIC: 64 µg/mL
[9]
  MIC: > 256 µg/mL
[10]
  MIC: > 256 µg/mL
[11]
  MIC: > 256 µg/mL
[12]
  MIC: > 256 µg/mL
[13]
  MIC: 4 µg/mL
[14]
  MIC: 8 µg/mL
[15]
  MIC: > 256 µg/mL
[16]
  MIC: > 256 µg/mL
[17]
  MIC: > 256 µg/mL
[18]
  MIC: > 256 µg/mL
[19]
  MIC: > 256 µg/mL
[20]
  MIC: 256 µg/mL
[21]
  MIC: > 256 µg/mL
[22]
  MIC: > 256 µg/mL
[23]
  MIC: 128 µg/mL
[24]
  MIC: 128 µg/mL
[25]
  MIC: > 256 µg/mL
[26]
  MIC: > 256 µg/mL
[27]
  MIC: > 256 µg/mL
[28]
  MIC: 32 µg/mL
[29]
  MIC: > 256 µg/mL
[30]
  MIC: > 256 µg/mL
[31]
  MIC: > 256 µg/mL
[32]
  MIC: > 256 µg/mL
[33]
  MIC: 128 µg/mL
[34]
  MIC: 128 µg/mL
[35]
  MIC: > 256 µg/mL
[36]
  MIC: 256 µg/mL
[37]
  MIC: 32 µg/mL
[38]
  MIC: 8 µg/mL

Reference: ChEMBL document CHEMBL1629674, “Surveillance of carbapenem-resistant Pseudomonas aeruginosa isolates from Puerto Rican Medical Center Hospitals: dissemination of KPC and IMP-18 beta-lactamases” (2009)
